# How the values were obtained:
# [1] = tested on: HER2/neu spontaneous mammary tumors; assay: HER2/neu transgenic spontaneous mammary tumor model: survival and toxicity; type: in vivo, mouse; details: single IV dose 5 mg/kg
# Excerpt: We also performed a pilot efficacy study of hAnnA1-CMD-Pt(II) in a genetically engineered mouse HER2/neu model that develops spontaneous mammary tumors (GuyWebster et al., 1992; Reilly et al., 2000).
# [2] = tested on: mammary tumors (N202); assay: IVM ectopic-orthotopic (EO) mammary tumor model, spheroids in dorsal skin window chambers: tumor growth
# Procedure: We used the classic IVM tumor model with modifications (Asaishi et al., 1981; Endrich et al., 1980; Vajkoczy et al., 2000). The mice, usually athymic nude mice (25-30 g body weight), were anesthetized (7.3 mg ketamine hydrochloride and 2.3 mg xylazine per 100 g body weight, intraperitoneal injection) and placed on a heating pad. A titanium frame was placed onto the dorsal skinfold of mice to sandwich the extended double layer of skin. A 15 mm diameter full-thickness circular layer of skin was then excised. The superficial fascia on top of the remaining skin was carefully removed to expose the underlying muscle and subcutaneous tissue which was then covered with another titanium frame with a glass coverslip to form the window chamber. After a recovery period of 1-2 days, tumor spheroids were implanted.
# Tumor spheroids were formed by plating 50,000 cells onto 1% agar-coated 96-well non-tissue culture treated flat bottom dishes (20 μl cells in 100 μl medium) and centrifuging 4 times at 2000 rpm for 15 min, rotating the dish after every centrifugation. The cells were incubated an additional 3-7 days (depending on cell type) at 37° C. in 5% CO2 in air to form tight spheroids. BT-474 cells required 500,000 cells in the presence of Matrigel (BD Bioscience, San Diego) (1:1 cell volume dilution) to form spheroids in culture. […]
# Tumors were imaged using intravital fluorescence microscopy, as described (Borgstrom et al., 2013; Oh et al., 2007; Oh et al., 2014). Tumor growth was analyzed off-line from the recorded, digital, grayscale 0-to-256 images using Image-Pro Plus (Media Cybernetics, Bethesda, Md.). Tumor growth was determined in 2 ways, by measuring the area with fluorescence signal from the GFP or CFP expressing tumor cells or by quantifying the cumulative fluorescence signal for the tumor over time. Tumor area is measured by counting the number of pixels with a grayscale intensity above 75, thereby making it easier to reliably follow irregularly shaped tumors. The cumulative tumor fluorescence signal was measured by signal summation of all pixels over 75. […]
structure (smiles),measurement,setting,value
N.N.[Cl][Pt][Cl] [cisplatin],Mean extension in survival vs untreated controls,[1],30 days
CC(=O)O[C@@]12CO[C@@H]1C[C@H](O)[C@@]1(C)C(=O)[C@H](O)C3=C(C)[C@@H](OC(=O)[C@H](O)[C@@H](NC(=O)OC(C)(C)C)c4ccccc4)C[C@@](O)([C@@H](OC(=O)c4ccccc4)[C@H]21)C3(C)C [docetaxel],Tumor response,[2]; unconjugated drug 5 mg/kg,produced less benefit
"COc1cccc2c1C(=O)c1c(O)c3c(c(O)c1C2=O)C[C@@](O)(C(=O)CO)C[C@@H]3O[C@H]1C[C@H](N)[C@H](O)[C@H](C)O1 [free doxorubicin, doxorubicin]",Tumor response (IVM),[2]; free drug 1 mg/kg,no effect
same,Tumor response (IVM),[2]; free drug 5 mg/kg (near MTD),slowed tumor growth modestly
